Key:
Format in all cases: in vivo
[1] = tested on: Alopecurus myosuroides (ALOMY); experiment: Pre-emergence herbicidal action against ALOMY; settings: scored visually after about 3 weeks, 100% = plants have died
Outline: (§1)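 Seeds sown in pots and covered with soil; WP or EC formulations sprayed onto the soil surface at 600 l/ha water with 0.5% additive, at 320 g/ha or lower. Greenhouse growth for about 3 weeks, then visual scoring as % effect against untreated controls (100% = plants dead).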

[2] = tested on: Amaranthus retroflexus (AMARE); experiment: Pre-emergence herbicidal action against AMARE; settings: visual scoring after about 3 weeks vs untreated controls
Outline: as §1

[3] = tested on: Digitaria sanguinalis (DIGSA); experiment: Pre-emergence herbicidal action against DIGSA
Excerpt: Seeds of monocotyledonous and dicotyledonous weed plants and crop plants are placed in plastic or organic planting pots and covered with soil. The compounds of the invention, formulated in the form of wettable powders (WP) or as emulsion concentrates (EC), are then applied to the surface of the covering soil as aqueous suspension or emulsion with addition of 0.5% additive at a water application rate equivalent to 600 l/ha. After the treatment, the pots are placed in a greenhouse and kept under good growth conditions for the trial plants. After about 3 weeks, the effect of the preparations is scored visually in comparison with untreated controls as percentages. For example, 100% activity=the plants have died, 0% activity=like control plants.
Tables A1 to A13 below show the effects of selected compounds of the general formula (I) on various harmful plants and at an application rate corresponding to 320 g/ha or lower, which were obtained by the experimental procedure mentioned above. The appendices “a”, “b” and “c” give differentiation by dosage used with otherwise the same harmful plants tested.

[4] = tested on: Echinochloa crus-galli (ECHCG); experiment: Pre-emergence herbicidal action against ECHCG
Outline: as §1

[5] = tested on: Matricaria inodora (MATIN); experiment: Pre-emergence herbicidal action against MATIN
Outline: as §1

[6] = tested on: Polygonum convolvulus (POLCO); experiment: Pre-emergence herbicidal action against POLCO
Outline: as §1

Viola tricolor (VIOTR) [7] = experiment: Pre-emergence herbicidal action against VIOTR
Outline: as §1

[8] = tested on: Abutilon theophrasti (ABUTH); experiment: Post-emergence herbicidal action against ABUTH; settings: 80 g/ha, visual rating about 3 weeks after treatment vs untreated controls (100% = plants have died, 0% = like control plants)
Outline: (§2)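 Doses of 320 g/ha or lower, suffixes a, b and c marking different dosages, were applied post-emergence at the one-leaf stage in 600 l/ha water with 0.5% additive. Damage was assessed visually after about 3 weeks in the greenhouse.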

[9] = tested on: Alopecurus myosuroides (ALOMY); experiment: Post-emergence herbicidal action against ALOMY; settings: visual rating about 3 weeks after treatment vs untreated controls (100% = plants have died, 0% = like control plants)
Outline: as §2

[10] = tested on: Amaranthus retroflexus (AMARE); experiment: Post-emergence herbicidal action against AMARE; settings: 80 g/ha, visual rating about 3 weeks after treatment vs untreated controls (100% = plants have died, 0% = like control plants)
Outline: as §2

Avena fatua (AVEFA) [11] = experiment: Post-emergence herbicidal action against AVEFA; settings: 80 g/ha, visual rating about 3 weeks after treatment
Outline: as §2

[12] = tested on: Digitaria sanguinalis (DIGSA); experiment: Post-emergence herbicidal action against DIGSA; settings: visual rating about 3 weeks after treatment
Outline: as §2

[13] = tested on: Verconica persica (VERPE); experiment: Post-emergence herbicidal action against VERPE; settings: dosage 80 g/ha
Outline: as §2

Oryza sativa (ORYSA) = settings: crop plant compatibility, 20 g/ha, effect vs untreated controls
Outline: (§3)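 Foliar application at the one-leaf stage: WP/EC formulation, 0.5% additive, 600 l/ha water. Greenhouse-grown in sandy loam. Endpoint is visual % injury relative to untreated controls at about 3 weeks.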

Zea mays (ZEAMX) = settings: for Post-emergence action against ZEAMX in % (crop plant compatibility): 20 g/ha, effect in comparison to untreated controls; for Post-emergence action against ZEAMX in %: crop plant compatibility, 80 g/ha, effect vs untreated controls
Outline: as §3

Lolium rigidum (LOLRI) [14] = experiment: Pre-emergence herbicidal action against LOLRI
Outline: as §1

[15] = tested on: Pharbitis purpurea (PHBPU); experiment: Pre-emergence herbicidal action against PHBPU
Outline: as §1

Setaria viridis (SETVI) [16] = experiment: Pre-emergence herbicidal action against SETVI
Outline: as §1

[17] = tested on: Verconica persica (VERPE); experiment: Pre-emergence herbicidal action against VERPE; settings: dosage 320 g/ha
Outline: as §1

[18] = tested on: Echinochloa crus-galli (ECHCG); experiment: Post-emergence herbicidal action against ECHCG
Outline: as §2

Lolium rigidum (LOLRI) [19] = experiment: Post-emergence herbicidal action against LOLRI; settings: dosage 320 g/ha
Outline: as §2

[20] = tested on: Pharbitis purpurea (PHBPU); experiment: Post-emergence herbicidal action against PHBPU
Outline: as §2

Setaria viridis (SETVI) [21] = experiment: Post-emergence herbicidal action against SETVI
Outline: as §2

Viola tricolor (VIOTR) [22] = experiment: Post-emergence herbicidal action against VIOTR; settings: 320 g/ha
Outline: as §2

Avena fatua (AVEFA) [23] = experiment: Pre-emergence herbicidal action against AVEFA; settings: 320 g/ha, visual scoring after about 3 weeks vs untreated controls
Outline: as §1

[24] = 80 g/ha, visual scoring after about 3 weeks vs untreated controls

Post-emergence action against ORYSA in % (Oryza sativa (ORYSA)) [%]	Post-emergence action against ZEAMX in % (crop plant compatibility) (Zea mays (ZEAMX)) [%]	Post-emergence action against ZEAMX in % (Zea mays (ZEAMX)) [%]	SMILES	Pre-emergence action against ALOMY ([1]; 80 g/ha) [%]	Pre-emergence action against AMARE in % ([2]; 80 g/ha) [%]	Pre-emergence action against DIGSA in % [3, 24] [%]	Pre-emergence action against ECHCG in % ([4]; dosage 80 g/ha) [%]	Pre-emergence action against MATIN in % ([5]; dosage 80 g/ha) [%]	Pre-emergence action against POLCO in % ([6]; dosage 80 g/ha) [%]	Pre-emergence action against VIOTR in % (Viola tricolor (VIOTR) [7]; dosage 80 g/ha) [%]	Post-emergence action against ALOMY in % ([9]; 80 g/ha) [%]	Post-emergence action against AMARE in % [10] [%]	Post-emergence action against AVEFA in % (Avena fatua (AVEFA) [11]) [%]	Post-emergence action against DIGSA in % ([12]; 80 g/ha) [%]	Post-emergence action against VERPE in % [13] [%]	Pre-emergence action against ALOMY ([1]; 320 g/ha) [%]	Pre-emergence action against AMARE in % ([2]; 320 g/ha) [%]	Pre-emergence action against DIGSA in % ([3]; dosage 320 g/ha) [%]	Pre-emergence action against ECHCG in % ([4]; dosage 320 g/ha) [%]	Pre-emergence action against LOLRI in % (Lolium rigidum (LOLRI) [14]; dosage 320 g/ha) [%]	also measured
10	0	10	CC(C)=NOC(=O)COc1nn(-c2ncccc2F)c(-c2ccc(F)nc2)c1Br [Example I-45]	90	90	100	90	80	90	90	90	80	80	90	80						Post-emergence action against ABUTH in % [8]: 80%
			CCOC(=O)COc1nn(-c2nc(F)ccc2F)c(-c2cncc(F)c2)c1Cl [Example I-163]			90	80	90	80	90						90	90	100	90	90	Pre-emergence action against MATIN in % ([5]; dosage 320 g/ha): 90%; Pre-emergence action against PHBPU in % ([15]; dosage 80 g/ha): 90%; Pre-emergence action against PHBPU in % ([15]; dosage 320 g/ha): 90%; Pre-emergence action against POLCO in % ([6]; dosage 320 g/ha): 80%; Pre-emergence action against SETVI in % (Setaria viridis (SETVI) [16]; dosage 80 g/ha): 80%; Pre-emergence action against SETVI in % (Setaria viridis (SETVI) [16]; dosage 320 g/ha): 100%; Pre-emergence action against VERPE in % [17]: 80%; Pre-emergence action against VIOTR in % (Viola tricolor (VIOTR) [7]; 320 g/ha, Viola tricolor): 100%; Post-emergence action against ALOMY in % ([9]; 320 g/ha): 80%; Post-emergence action against DIGSA in % ([12]; 320 g/ha): 80%; Post-emergence action against ECHCG in % ([18]; dosage 80 g/ha): 80%; Post-emergence action against ECHCG in % ([18]; dosage 320 g/ha): 80%; Post-emergence action against LOLRI in % (Lolium rigidum (LOLRI) [19]): 80%; Post-emergence action against PHBPU in % ([20]; dosage 80 g/ha): 80%; Post-emergence action against PHBPU in % ([20]; dosage 320 g/ha): 90%; Post-emergence action against SETVI in % (Setaria viridis (SETVI) [21]; dosage 80 g/ha): 80%; Post-emergence action against SETVI in % (Setaria viridis (SETVI) [21]; dosage 320 g/ha): 90%; Post-emergence action against VIOTR in % (Viola tricolor (VIOTR) [22]): 80%
10	0	10	O=C(COc1nn(-c2ncccc2F)c(-c2ccc(F)nc2)c1Br)OCc1ccccn1 [Example I-46]	90	100	100		90		90	90	90	80	90	80	100	100	100	90	100	Pre-emergence action against AVEFA in % (Avena fatua (AVEFA) [23]): 90%; Pre-emergence action against LOLRI in % (Lolium rigidum (LOLRI) [14]; dosage 80 g/ha): 90%; Pre-emergence action against MATIN in % ([5]; dosage 320 g/ha): 90%; Pre-emergence action against POLCO in % ([6]; dosage 320 g/ha): 80%; Pre-emergence action against SETVI in % (Setaria viridis (SETVI) [16]; dosage 80 g/ha): 90%; Pre-emergence action against SETVI in % (Setaria viridis (SETVI) [16]; dosage 320 g/ha): 100%; Pre-emergence action against VERPE in % [17]: 100%; Pre-emergence action against VIOTR in % (Viola tricolor (VIOTR) [7]; 320 g/ha, Viola tricolor): 100%; Post-emergence action against PHBPU in % ([20]; dosage 80 g/ha): 80%
